These results are taken from ChEMBL document CHEMBL1201862, “PubChem BioAssay data set” (2004).

What all share (assay): growth of human tumour cells (NCI), 48 h
Assay [1] deals with NCI/ADR-RES.
Assay [2] relates to OVCAR-3.
Assay [3] has as its system U-251.
The subject of assay [4] is KM12.
Assay [5] relates to NCI-H460.
In assay [6] the test system is SW-620.
Assay [7] relates to MOLT-4.
For assay [8], the system named is DU-145.
Assay [9] has as its system SN12C.
Assay [10] has as its system MDA-MB-231.
The subject of assay [11] is HCT-15.
Assay [12] concerns SF-295.
Assay [13] has as its system UACC-62.
Assay [14] relates to SNB-75.
Assay [15] deals with EKVX.
The test system of assay [16] is OVCAR-8.
In assay [17] the test system is SNB-19.
For assay [18], the system named is SK-MEL-2.

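These data come from cells grown in 96-well plates and exposed to compound for 48 hours at five concentrations. GI50 marks 50% less growth.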 Activity calls are given as the source filed them. No stated cut-off is given here; in the data, active = GI50 up to about 1.1 µM and inactive = higher.

On to `COc1ccc2oc(=O)c(-c3nc4ccccc4o3)cc2c1`, for which the GI50 in assay [1] is 40.5 µM (inactive); in assay [2], 59.4 µM (inactive); in assay [3], > 100 µM (inactive); in assay [4] it was 27.4 µM (inactive); in [5], 74 µM (inactive); in [6] it was > 100 µM (inactive). The GI50 in [7] was > 100 µM (inactive); in [8], > 100 µM (inactive); in [9], > 100 µM (inactive); in assay [10] it was 32.7 µM (inactive); in assay [11] it was 59 µM; in [12], 61.7 µM (inactive). The GI50 in assay [13] is 65 µM (inactive); in assay [14], 55.1 µM (inactive); in assay [15], > 100 µM (inactive); in assay [16], > 100 µM (inactive); in assay [17] it was > 100 µM (inactive); in [18], > 100 µM (inactive).

With `CCn1c2c(c3ccccc3c1=O)C(=O)c1ccccc1-2`, the GI50 was > 100 µM (inactive) in assay [1]; > 100 µM (inactive) in assay [2]; > 100 µM (inactive) in assay [3]; > 100 µM (inactive) in assay [4]; > 100 µM (inactive) in assay [6]; 3.12 µM (inactive) in [7]. The GI50 in [8] is > 100 µM (inactive); in assay [9] it was > 100 µM (inactive); in [10] it was 85.7 µM (inactive); in assay [11], above 100 µM; in assay [12], > 100 µM (inactive); in [13], > 100 µM (inactive). For the same compound, the GI50 in assay [14], in assay [15], in [16], in assay [17] and in [18] was > 100 µM (inactive) in each case.

Regarding `CSc1nc(Cl)c(Br)c(Nc2cnc(O)nc2O)n1`, the GI50 in [1] was 19.7 µM (inactive); in [2], 14.6 µM (inactive); in [3], 20.2 µM (inactive); in assay [4] it was 22.8 µM (inactive); in assay [6] it was 27.1 µM (inactive); in assay [7], 13.4 µM (inactive). Further, the GI50 in [8] is 15.6 µM (inactive); in [9], 18.2 µM (inactive); in assay [10], 13.6 µM (inactive); in assay [11], 7.41 µM; in assay [12], 18.9 µM (inactive); in [13], 15.2 µM (inactive). The GI50 is 17.7 µM (inactive) in assay [14]; 15.3 µM (inactive) in assay [15]; 15.6 µM (inactive) in [16]; 20.2 µM (inactive) in assay [17]; 17.5 µM (inactive) in assay [18].

For the compound `Cc1cn(C2CC(OC(c3ccccc3)(c3ccccc3)c3ccccc3)C(COC(c3ccccc3)(c3ccccc3)c3ccccc3)O2)c(=O)[nH]c1=O` (configuration not stated), the GI50 in assay [1] was > 100 µM (inactive); in assay [2], > 100 µM (inactive); in assay [4], 31.3 µM (inactive); in assay [5] it was 57.8 µM (inactive); in assay [6], 90.4 µM (inactive); in [7] it was 29.4 µM (inactive). The GI50 is > 100 µM (inactive) in assay [8]; 53.6 µM (inactive) in assay [9]; 37.7 µM (inactive) in assay [10]; 59.2 µM in assay [11]; > 100 µM (inactive) in assay [12]; > 100 µM (inactive) in [13]. Further, the GI50 is 58.7 µM (inactive) in assay [14]; 45.6 µM (inactive) in [15]; > 100 µM (inactive) in assay [16]; 11.7 µM (inactive) in assay [17]; 23.7 µM (inactive) in assay [18].

`N#CC(Cc1ccccc1)N(CCC1=CCCCC1)C(c1ccccc1)c1ccccc1` (configuration not stated): the GI50 in [1] is > 100 µM (inactive); in [2], > 100 µM (inactive); in [3], 69.5 µM (inactive); in assay [4] it was > 100 µM (inactive); in [5], 33.5 µM (inactive); in assay [6] it was 38.9 µM (inactive). In addition, the GI50 in assay [7] is 66.8 µM (inactive); in assay [8], > 100 µM (inactive); in assay [10], > 100 µM (inactive); in [11], 42.9 µM; in assay [12], > 100 µM (inactive); in [13] it was > 100 µM (inactive). Also, the GI50 in [14] was > 100 µM (inactive); in assay [15], 35.7 µM (inactive); in [16], > 100 µM (inactive); in [17], > 100 µM (inactive); in [18] it was > 100 µM (inactive).

`O=C(O)CCC(=O)OC1N=C(c2ccccc2Cl)c2cc([N+](=O)[O-])ccc2NC1=O` (configuration not stated): the GI50 in assay [1] was > 100 µM (inactive); in [2], 32.7 µM (inactive); in assay [3], 31.5 µM (inactive); in assay [4] it was 40.7 µM (inactive); in [5], > 100 µM (inactive); in assay [6], 26.1 µM (inactive). In addition, the GI50 in assay [8] was > 100 µM (inactive); in [9], 46.5 µM (inactive); in assay [10] it was > 100 µM (inactive); in [11], 36.7 µM; in assay [12], > 100 µM (inactive); in assay [13], > 100 µM (inactive). The GI50 was 38.1 µM (inactive) in [14]; > 100 µM (inactive) in [15]; 39 µM (inactive) in assay [16]; > 100 µM (inactive) in assay [17]; > 100 µM (inactive) in assay [18].

For the compound `COP(=O)(OC)[C@@](O)(c1ccccc1)[C@@H](O)[C@@H](O)c1ccccc1`, the GI50 in [1] is > 100 µM (inactive); in assay [2] it was > 100 µM (inactive); in assay [3], 88.5 µM (inactive); in [4], > 100 µM (inactive); in assay [5], > 100 µM (inactive); in assay [6] it was 44.7 µM (inactive). For the same compound, the GI50 is > 100 µM (inactive) in [8]; > 100 µM (inactive) in assay [9]; > 100 µM (inactive) in assay [10]; above 100 µM in [11]; > 100 µM (inactive) in assay [12]; > 100 µM (inactive) in assay [13]. Also, the GI50 in [14], in assay [15], in [16], in [17] and in [18] was > 100 µM (inactive) throughout.

For the compound `CC1(C)OCC([C@H]2O[C@@H](CC(=S)NCCCCCCCCCCCCNC(=S)C[C@H]3O[C@@H](C4COC(C)(C)O4)[C@H]4OC(C)(C)O[C@H]43)[C@H]3OC(C)(C)O[C@H]32)O1` (some centres not stated), the GI50 in [1] is 25.9 µM (inactive); in assay [2] it was 74.5 µM (inactive); in assay [3], 35 µM (inactive); in assay [4], 48.6 µM (inactive); in assay [5] it was 25.6 µM (inactive); in assay [6], > 100 µM (inactive). Further, the GI50 in [7] is 15.8 µM (inactive); in [8], > 100 µM (inactive); in assay [10], > 100 µM (inactive); in assay [11] it was 73.1 µM; in assay [12], 31.6 µM (inactive); in [14], > 100 µM (inactive). For the same compound, the GI50 in [15] is 49.9 µM (inactive); in assay [16], 53.5 µM (inactive); in [18] it was 58.5 µM (inactive).

Regarding `CN(C)/C=C/C=C(/C=N/S(=O)(=O)C(F)(F)F)C1C=CN(S(=O)(=O)C(F)(F)F)C=C1`, the GI50 was 30.3 µM (inactive) in [1]; 32.4 µM (inactive) in [2]; 37.6 µM (inactive) in [3]; 25 µM (inactive) in [4]; 24.3 µM (inactive) in assay [5]; 38.1 µM (inactive) in assay [6]. Moreover, the GI50 is 26.2 µM (inactive) in [7]; 37.2 µM (inactive) in [8]; 40.6 µM (inactive) in assay [9]; 31.1 µM (inactive) in assay [10]; 23.4 µM in assay [11]; 38.2 µM (inactive) in assay [12]. Also, the GI50 in assay [13] was 42.3 µM (inactive); in assay [14], 16.6 µM (inactive); in assay [15], 30.1 µM (inactive); in assay [16], 37.7 µM (inactive); in assay [18], 24.5 µM (inactive).

Turning to `Cn1ccnc1SC(F)(F)c1nc2ccccc2o1`, the GI50 in [1], in assay [2], in assay [3], in assay [4], in [5] and in [6] was > 100 µM (inactive) each time. For the same compound, the GI50 is > 100 µM (inactive) in [7]; > 100 µM (inactive) in assay [8]; > 100 µM (inactive) in assay [9]; > 100 µM (inactive) in assay [10]; above 100 µM in [11]; > 100 µM (inactive) in assay [12]. Moreover, the GI50 in assay [13] was > 100 µM (inactive); in assay [14], 0.043 µM (active); in assay [16] it was > 100 µM (inactive); in [18] it was > 100 µM (inactive).

Regarding `CCOC(=O)Cn1c(=O)c2nc(SC)sc2n(-c2ccc(C)cc2)c1=S`, the GI50 in assay [1] is 50.6 µM (inactive); in assay [2], 50.4 µM (inactive); in [3], 24.5 µM (inactive); in [5], 48 µM (inactive); in assay [6], > 100 µM (inactive); in assay [7] it was > 100 µM (inactive). The GI50 was 98.4 µM (inactive) in [8]; > 52.2 µM (inactive) in [9]; 52.7 µM (inactive) in assay [10]; above 100 µM in assay [11]; > 71.6 µM (inactive) in [12]; 43.8 µM (inactive) in assay [13]. The GI50 in assay [14] is 9.71 µM (inactive); in assay [15], 74.3 µM (inactive); in assay [16], 36.6 µM (inactive); in [17], 20.4 µM (inactive); in assay [18] it was 23.7 µM (inactive).

As to `Cc1ccc(C(=O)Nc2ccc(CP(=O)(O)O)cc2)cc1NC(=O)c1cccc(NC(=O)Nc2cccc(C(=O)Nc3cc(C(=O)Nc4ccc(CP(=O)(O)O)cc4)ccc3C)c2)c1`, the GI50 in [1], in [2], in [3], in assay [4], in assay [5] and in assay [6] was > 100 µM (inactive) in each case. Further, the GI50 was > 100 µM (inactive) in assay [8]; > 100 µM (inactive) in [9]; > 100 µM (inactive) in assay [10]; above 100 µM in assay [11]; > 100 µM (inactive) in assay [12]; > 100 µM (inactive) in assay [13]. Besides, the GI50 in assay [14], in [15], in assay [16], in assay [17] and in [18] was > 100 µM (inactive) throughout.
